Experimental data reported in ChEMBL document CHEMBL1201862, “PubChem BioAssay data set” (2004).
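Grown in 96-well plates, cells were treated for 48 hours with each compound at five concentrations. Insufficient inhibition: endpoint recorded as highest concentration tested. The concentration for 50% growth inhibition is given as GI50.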 The source made the active and inactive calls. Cut-off read from the data, not from the text of the source: active = GI50 up to about 1.1 µM and inactive = higher.

How the values were obtained:
Test in all cases: growth of human tumour cells (NCI), 48 h
786-0 = system: 786-0
COLO 205 = system: COLO 205
DU-145 = system: DU-145
HCC 2998 = system: HCC 2998
IGROV-1 = system: IGROV-1
KM12 = system: KM12
LOX IMVI = system: LOX IMVI
NCI-H226 = system: NCI-H226
NCI-H23 = system: NCI-H23
NCI-H460 = system: NCI-H460
OVCAR-5 = system: OVCAR-5
PC-3 = system: PC-3
SNB-75 = system: SNB-75
SW-620 = system: SW-620
T47D = system: T47D
U-251 = system: U-251
UACC-257 = system: UACC-257
UACC-62 = system: UACC-62
UO-31 = system: UO-31
OVCAR-4 = system: OVCAR-4

Compound	GI50 (786-0)	GI50 (COLO 205)	GI50 (DU-145)	GI50 (HCC 2998)	GI50 (IGROV-1)	GI50 (KM12)	GI50 (LOX IMVI)	GI50 (NCI-H226)	GI50 (NCI-H23)	GI50 (NCI-H460)	GI50 (OVCAR-5)	GI50 (PC-3)	GI50 (SNB-75)	GI50 (SW-620)	GI50 (T47D)	GI50 (U-251)	GI50 (UACC-257)	GI50 (UACC-62)	GI50 (UO-31)	GI50 (OVCAR-4)
Oc1cc(-c2cccc(OC(F)(F)F)c2)nc2ccc(N3CCCC3)cc12	0.00014 µM (active)	0.00303 µM (active)	0.000316 µM (active)	0.000547 µM (active)	0.00131 µM (active)	0.000129 µM (active)	0.000205 µM (active)	0.000142 µM (active)	0.0191 µM (active)	0.0025 µM (active)	0.000297 µM (active)	0.000318 µM (active)	< 0.0001 µM (active)	0.00019 µM (active)	26.3 µM (inactive)	< 0.0001 µM (active)	< 0.0001 µM (active)	< 0.0001 µM (active)	0.000555 µM (active)	
O=C(O)CCSc1nnc(COc2ccc(Cl)cc2)n1-c1ccccc1	> 100 µM (inactive)	> 100 µM (inactive)	> 100 µM (inactive)	> 100 µM (inactive)	> 100 µM (inactive)	> 100 µM (inactive)	> 100 µM (inactive)	> 100 µM (inactive)	> 100 µM (inactive)	> 100 µM (inactive)	> 100 µM (inactive)	> 100 µM (inactive)	> 100 µM (inactive)	> 100 µM (inactive)	> 100 µM (inactive)	> 100 µM (inactive)	> 100 µM (inactive)	> 100 µM (inactive)	> 100 µM (inactive)	> 100 µM (inactive)
O=C1CC2SC(COCc3ccccc3)(CCN2Cc2ccccc2)C1 (stereo unspecified)	> 100 µM (inactive)	39.1 µM (inactive)	> 100 µM (inactive)	> 100 µM (inactive)	> 100 µM (inactive)	52.2 µM (inactive)	31.8 µM (inactive)	87.3 µM (inactive)	43.9 µM (inactive)	54.6 µM (inactive)	> 100 µM (inactive)	35 µM (inactive)	> 100 µM (inactive)	> 100 µM (inactive)	54.6 µM (inactive)	66.8 µM (inactive)	37.1 µM (inactive)	81.1 µM (inactive)	34.7 µM (inactive)	61.9 µM (inactive)
CC(C)(CC(O)C#N)/[N+]([O-])=[N+](\[O-])C(C)(C)CC(O)C#N (stereo unspecified)	18.2 µM (inactive)	14.8 µM (inactive)	30.5 µM (inactive)	17.2 µM (inactive)	21.2 µM (inactive)	30.7 µM (inactive)	17.6 µM (inactive)	25.6 µM (inactive)	25.4 µM (inactive)	36.1 µM (inactive)	23.5 µM (inactive)	28.2 µM (inactive)	23.7 µM (inactive)	12 µM (inactive)	27.5 µM (inactive)	26.5 µM (inactive)	20.4 µM (inactive)	16 µM (inactive)	26.9 µM (inactive)	24.1 µM (inactive)
CC12CCC(C(=O)n3c1nc1ccccc13)C(C)(C)O2 (stereo unspecified)	> 100 µM (inactive)	> 100 µM (inactive)	> 100 µM (inactive)	> 100 µM (inactive)	> 100 µM (inactive)	> 100 µM (inactive)	> 100 µM (inactive)	> 100 µM (inactive)	> 100 µM (inactive)		> 100 µM (inactive)	> 100 µM (inactive)	15.6 µM (inactive)	> 100 µM (inactive)	> 100 µM (inactive)	> 100 µM (inactive)	> 100 µM (inactive)	> 100 µM (inactive)	75.3 µM (inactive)	> 100 µM (inactive)
CC1CC(C#N)=C2NCCCCN2C1=O (stereo unspecified)	> 100 µM (inactive)	> 100 µM (inactive)	> 100 µM (inactive)	> 100 µM (inactive)	> 100 µM (inactive)	> 100 µM (inactive)	> 100 µM (inactive)	> 100 µM (inactive)	> 100 µM (inactive)	> 100 µM (inactive)		> 100 µM (inactive)	> 100 µM (inactive)	> 100 µM (inactive)	> 100 µM (inactive)	> 100 µM (inactive)	> 100 µM (inactive)	> 100 µM (inactive)	> 100 µM (inactive)	> 100 µM (inactive)
Cc1nc(SCC(=O)Nc2ccccc2)c2sc(=S)n(-c3ccccc3)c2n1	8.79 µM (inactive)	> 10 µM (inactive)	> 10 µM (inactive)	> 10 µM (inactive)	> 10 µM (inactive)	> 10 µM (inactive)	> 10 µM (inactive)	2.9 µM (inactive)	> 10 µM (inactive)	> 10 µM (inactive)	> 10 µM (inactive)	> 10 µM (inactive)	3.19 µM (inactive)	> 10 µM (inactive)	> 10 µM (inactive)	8.87 µM (inactive)	> 10 µM (inactive)	> 10 µM (inactive)		5.62 µM (inactive)
CCCC(=O)N(C)/N=N/c1ccc(C(=O)OCC)cc1	> 100 µM (inactive)		> 100 µM (inactive)	> 100 µM (inactive)	> 100 µM (inactive)	> 100 µM (inactive)	> 100 µM (inactive)	> 100 µM (inactive)	> 100 µM (inactive)	22.6 µM (inactive)	> 100 µM (inactive)	> 100 µM (inactive)	37.9 µM (inactive)	> 100 µM (inactive)	63.4 µM (inactive)	> 100 µM (inactive)	> 100 µM (inactive)	> 100 µM (inactive)	42.6 µM (inactive)	> 100 µM (inactive)
CCN(CC)C(=S)N/N=C/c1cc(OC)ccc1O	2.75 µM (inactive)	3.86 µM (inactive)	5.86 µM (inactive)	3.86 µM (inactive)	6.37 µM (inactive)	1.7 µM (inactive)	2.32 µM (inactive)	3.03 µM (inactive)	7.98 µM (inactive)	1.66 µM (inactive)	57.5 µM (inactive)	8.85 µM (inactive)	19.4 µM (inactive)	8.28 µM (inactive)	7.28 µM (inactive)	3.61 µM (inactive)	7.31 µM (inactive)	4.25 µM (inactive)	0.561 µM (active)	3.56 µM (inactive)
COC12C=CC(CC1)C(C)(C)C2OS(C)(=O)=O (stereo unspecified)	> 100 µM (inactive)	> 100 µM (inactive)	> 100 µM (inactive)	> 100 µM (inactive)	> 100 µM (inactive)	> 100 µM (inactive)		> 100 µM (inactive)	> 100 µM (inactive)	> 100 µM (inactive)	> 100 µM (inactive)	> 100 µM (inactive)	38.3 µM (inactive)	> 100 µM (inactive)	> 100 µM (inactive)	> 100 µM (inactive)	> 100 µM (inactive)	> 100 µM (inactive)	> 100 µM (inactive)	> 100 µM (inactive)
COC(=O)C1=C(C)NC(C)=C(C(=O)OC)C1c1ccc(NO)cc1	15.5 µM (inactive)	12.5 µM (inactive)	19.1 µM (inactive)	18.7 µM (inactive)	16.3 µM (inactive)	17.1 µM (inactive)	5.68 µM (inactive)	17.3 µM (inactive)	21.3 µM (inactive)	14.9 µM (inactive)	15.7 µM (inactive)	13.4 µM (inactive)	13.2 µM (inactive)	4.09 µM (inactive)	7.23 µM (inactive)	15.9 µM (inactive)	11 µM (inactive)	13 µM (inactive)	11.3 µM (inactive)	10.6 µM (inactive)
Clc1ccc(-c2nnc(-c3c(Cl)c(Cl)c(Cl)c(Cl)c3-c3nc4ccccc4[nH]3)o2)cc1	50.4 µM (inactive)	52.2 µM (inactive)	78.2 µM (inactive)	59 µM (inactive)	30.2 µM (inactive)	97.5 µM (inactive)	71.9 µM (inactive)	54.5 µM (inactive)	45 µM (inactive)	44 µM (inactive)	> 100 µM (inactive)	97.5 µM (inactive)	68.7 µM (inactive)	> 100 µM (inactive)	21 µM (inactive)		> 100 µM (inactive)	63.4 µM (inactive)	42.7 µM (inactive)	84.9 µM (inactive)
CCCNC1=Nc2ccccc2[C@@H]2N(C)c3ccccc3C(C)C[C@]12C (stereo partly specified)	18.5 µM (inactive)	17.9 µM (inactive)	32.4 µM (inactive)	11.1 µM (inactive)	17.8 µM (inactive)	20.3 µM (inactive)	13.3 µM (inactive)	34 µM (inactive)	18.2 µM (inactive)	24.5 µM (inactive)	15.1 µM (inactive)	16 µM (inactive)	15.7 µM (inactive)	16.5 µM (inactive)	20 µM (inactive)		12.9 µM (inactive)	16.1 µM (inactive)	27.9 µM (inactive)	5.7 µM (inactive)
CCn1cc(C(=O)O)c(=O)c2ccc(C)nc21 [NALIDIXIC ACID]	> 100 µM (inactive)	> 100 µM (inactive)	> 100 µM (inactive)	> 100 µM (inactive)	> 100 µM (inactive)	> 100 µM (inactive)	> 100 µM (inactive)	> 100 µM (inactive)	> 100 µM (inactive)	> 100 µM (inactive)	> 100 µM (inactive)	> 100 µM (inactive)	97.3 µM (inactive)	> 100 µM (inactive)	> 100 µM (inactive)	> 100 µM (inactive)	> 100 µM (inactive)		67 µM (inactive)	> 100 µM (inactive)
